# Measurements from patent US9187526B2, “Peptide based inhibition of caPCNA interaction in cancer” (priority 2006, dated 2015).
# Read-outs that look alike come from different tables or passages of the source. Where no end group is shown, it is not given here.
# Tests used:
# U937 leukemia cells = test: Cytotoxicity in U937 leukemia cell cultures, liposome-mediated peptide transfer, flow cytometry with propidium iodide and annexin V; type: cell-based
# Description: Peptide fragments derived from the protein Proliferating Cell Nuclear Antigen (PCNA) are identified herein that have the ability to act, in conjunction with DNA damaging agents (e.g., doxorubicin), to enhance the therapeutic effects of such agents to treat a variety of cancer cells. The peptides are derived from the amino acid sequence within PCNA, for example, encompassing amino acids 126-133. This sequence appears to be uniquely exposed in cancer cells, but not non-cancer cells. By preventing PCNA-binding proteins, including XPG, from binding directly to caPCNA in cancer cells the effects of chemotherapeutic drugs including DNA damaging agents are enhanced. […] Exponentially growing U937 leukemia cell cultures in tissue culture media were used. A liposome mediated protein transfer technique was used wherein the caPCNA peptide (126-133) and doxorubicin were encapsulated in liposomes and added to the cell cultures at 10 μM. […] This approach produced over a 50% killing of the cultured cells within 24 hours that was peptide/drug specific, and not due to liposome mediated cytotoxicity.
# As a positive control, these leukemia cells were also incubated for several hours (either 4 or 24 hours) with a peptide derived from the p21waf protein, and as a negative control, a peptide derived from the yeast myosin protein. […] Cell killing vs. cell damage was assessed by flow cytometry using propidium iodide and annexin V staining.
# breast cancer cells = test: Flow-cytometric analysis of breast cancer cells treated with peptide-containing liposomes (propidium iodide / annexin V); type: cell-based
# Method: Exponentially growing breast cancer cells were grown in culture media to 50% of confluence (FIG. 1). The media was then changed and liposomes that were prepared from transfection reagent (PJR) were incubated with the cells in fresh media for an additional 24 hours prior to performing flow-cytometric analysis of the treated cells.
# Liposomes contained either the carboxyl region of the p21waf1 protein, and/or the caPCNA antigenic site peptide (LGIPEQEY) (SEQ ID NO: 1). After 24 hours, the cells were stained with propidium iodide and fluorescently labeled annexin V antibody. Healthy growing cells were not permeable to the antibody as shown in lower left panel of FIG. 1, while permeabilized healthy cells susceptible to the transfection reagent, but still growing, were stained with propidium iodide. Cells staining with the annexin V antibody indicate some level of damage associated with the induction of apoptotic cells (lower right quadrant, FIG. 1), and/or cells that had died from either apoptosis or necrosis (upper right quadrant, FIG. 1). […] Cells treated with only the transfection reagent slightly affected the condition of the cells and lead to a slight increase in the number of apoptotic and necrotic cells. […] In addition, approximately 5-7% of the remaining cells appeared to be undergoing apoptosis and was slated to die.
# [1] = test system: caPCNA binding to caPCNA antibody (caPCNAab); test: Competition ELISA: caPCNA captured by plate-bound caPCNA antibody (caPCNAab), detected with C20 antibody; parameters: species or system human; conditions: increasing amounts of peptide incubated simultaneously with purified caPCNA
# Method: The wells are washed and then incubated with a goat anti-PCNA antibody (C20) that recognizes the C-terminal 20 amino acids of PCNA. Bound C20 antibody is visualized with an alkaline phosphatase conjugated anti-goat IgG antibody, and bound antibody complex is visualized with […], and quantified by spectrophotometry. The competition experiments shown in this study involve the simultaneous incubation of the ca(cs)PCNA with increasing amounts of the antigenic peptide fragment of caPCNA (referred to as B1 or the PCNA aa126-133 peptide) in this assay.
# The assay described in FIG. 5 was used to test the specificity of the antibody combining site for the epitope defined by PCNA aa126-133 (FIG. 6). The ELISA assay was performed as described in aim 1, however, either the B1 peptide or a peptide sequence (H-Ser-Ala-Cys-Glu-Gln-IIe-Leu-Lys-Asp-Thr-OH) (SEQ ID NO: 28) taken from within the yeast myosin protein was used to compete for the antibody in the presence of purified caPCNA.
# The ELISA described herein was used to monitor the ability of two peptides to disrupt caPCNA binding to the bound caPCNA antibody. One peptide (H-[…]OH) (SEQ ID NO: 29) corresponding to the p21cip/waf1 proteins site of interaction with PCNA was evaluated in this assay, and is shown to have no effect on the binding of caPCNA to the bound caPCNA antibody in this ELISA assay (FIG. 7). […] Therefore, the XPG peptide interacts with its recognized PCNA binding site in order to block binding of the PCNA protein to the caPCNA antibody. This happens if the epitope recognized by the antibody was masked by specifically binding this XPG peptide.
# caPCNA = molecular target: T1, caPCNA (Homo sapiens, UniProt P12004); test: XPG-GST fusion protein immunoprecipitation of PCNA isoforms from MCF7 cell extract, 2D-PAGE Western blot; type: binding; conditions: 30 μg MCF7 cell extract, 2 h incubation, glutathione agarose beads
# T1 construct: precipitate caPCNA selectively from the MCF7 breast cancer cell extract; endogenous in cells; host or cells: MCF7 cell extract (XPG-GST partner expressed in bacteria)
# T1 sequence (P12004 whole entry, the tested form may be a part, canonical isoform): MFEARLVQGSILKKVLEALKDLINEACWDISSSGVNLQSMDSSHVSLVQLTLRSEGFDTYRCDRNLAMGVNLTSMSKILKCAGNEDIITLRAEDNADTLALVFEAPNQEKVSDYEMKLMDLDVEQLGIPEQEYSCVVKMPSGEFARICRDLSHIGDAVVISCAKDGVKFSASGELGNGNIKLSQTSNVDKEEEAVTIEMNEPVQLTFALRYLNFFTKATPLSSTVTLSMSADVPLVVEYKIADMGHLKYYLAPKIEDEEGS
# Description: MCF7 cell (human breast adenocarcinoma cell line) extracts were processed for purification of the synthesome. MCF7 derived synthesome was then subjected to chromatography steps on phosphocellulose, phenyl Sepharose, and Q-Sepharose matrices as described in (Malkas, L. and Hickey, R. (1996) The expression, purification and characterization of DNA polymerases involved in papovavirus replication. In: Methods in Enzymol Vol. 275: Viral Polymerases and Related Proteins, Acad. Press (133-167).). The Q-Sepharose eluted fraction containing both the nmPCNA and caPCNA isoforms was then loaded onto a XPG-GST affinity column. The column was eluted and both the column flow-through and eluate were subjected to 2D-PAGE Western blot analysis using PC10 antibody. The PC10 antibody was used at a dilution of 1:1000 in the Western blot analysis.
# caPCNA was specifically immunoprecipitated from a MCF7 cell extract using XPG-GST fusion protein (FIG. 3). Thirty microgram samples of MCF7 cell extract were incubated with XPG-GST fusion protein for two hours, followed by incubation with Glutathione agarose beads for one hour to capture the XPG-GST. The mixture was then centrifuged to collect the beads, and the supernatant and the agarose bead pellet containing the XPG-GST PCNA complex were subjected to 2D-PAGE Western blot analysis. The Western blots were then probed using commercially available PC10 antibody.
# cancer cells = test: Incubation of RYIRS-tagged caPCNA-derived peptide with cancer cells in vitro (DMSO or liposome uptake); type: cell-based; conditions: with doxorubicin
# Method: The peptides disclosed herein are synthesized using standard peptide synthesis procedures and equipments or can be obtained commercially (e.g., United Biochemical Research Co., Seattle, Wash.). […] Uptake of this peptide was initiated by incubation of this peptide with the cancer cells in the presence of dimethyl sulfoxide (DMSO) in either phosphate buffered saline (PBS) or culture media containing 0.2-2% DMSO, without serum for about 4-24 hours. Uptake of this peptide was also efficiently mediated by encapsulation of the peptide in a liposome formulation and subsequent incubation with the cancer cells at 37° C. for about 4-24 hours.
compound,measurement,setting,value
"LGIPEQEY [caPCNA peptide (126-133), LGIPEQEY]",intrinsic cytotoxicity,"U937 leukemia cells; U937 cells, peptide as single agent, liposome encapsulated, 10 μM",intrinsic cytotoxicity
same,increase of the cytotoxicity of doxorubicin,"U937 leukemia cells; U937 cells, peptide plus a range of concentrations of doxorubicin",approximately 3 fold
same,cytotoxic response (cell killing),"breast cancer cells; breast cancer cells, peptide alone in liposomes, 24 hours",strong cytotoxic response
H-Gln-Thr-Gln-Leu-Arg-Ile-Asp-Ser-Phe-Phe-Arg-OH (H-QTQLRIDSFFR-OH) [XPG peptide],competition with caPCNA for binding to the caPCNA antibody,[1],effectively competed
H-Gly-Arg-Lys-Arg-Arg-Gln-Thr-Ser-Met-Thr-Asp-Arg-Tyr-His-Ser-Lys-Arg-Arg-Leu-Ile-Phe-Ser-OH (H-GRKRRQTSMTDRYHSKRRLIFS-OH) [p21cip/waf1 peptide (SEQ ID NO: 29)],competition with caPCNA for binding to the caPCNA antibody,[1],no effect
"XPG-GST fusion protein: 29 amino acid fragment of the XPG protein coupled to Glutathione-S-transferase, expressed in bacteria (LKQLDAQQTQLRIDSFFRLAQQEKEDAKR; also: fused to glutathione-S-transferase)",selective binding/precipitation of caPCNA versus nmPCNA,caPCNA,recognize and precipitate caPCNA selectively
H-Ser-Ala-Cys-Glu-Gln-IIe-Leu-Lys-Asp-Thr-OH (H-SACEQILKDT-OH) [MAL4],competition with caPCNA for binding to the caPCNA antibody,[1],does not compete
LGIPEQEYRYIRS [caPCNA-derived peptide (LGIPEQEY)(RYIRS)],augmentation of cytotoxic effects of chemotherapeutic agents,cancer cells,augments the cytotoxic effects
"p21 peptide: peptide derived from the p21waf protein (carboxyl region of p21waf1), positive control (GRKRRQTSMTDRYHSKRRLIFS) [reference compound]",cell kill,"U937 leukemia cells; U937 leukemia cells, absence of doxorubicin, incubation 4 or 24 hours",> 60%
same,cytotoxic response (cell killing),breast cancer cells,induced cell killing
COc1cccc2c1C(=O)c1c(O)c3c(c(O)c1C2=O)C[C@@](O)(C(=O)CO)C[C@@H]3O[C@H]1C[C@H](N)[C@H](O)[C@H](C)O1 [doxorubicin],cell killing,"breast cancer cells; breast cancer cells, low doses of doxorubicin alone",significant level of cell killing
